Test results as given in patent US20100160351A1, “PHARMACEUTICAL COMPOSITIONS AND METHODS FOR TREATING HYPERURICEMIA AND RELATED DISORDERS” (NUON THERAPEUTICS, INC., priority 2008, published 2010).
Values joined by “and” are separate entries in the source; they are usually repeats but may differ in a detail not shown here. Identical values can stand only once.

Key:
[1] = tested on: monosodium urate (MSU) crystal-induced air pouch inflammation; test: Air Pouch Model 1: MSU crystal air pouch, rodent model of gout; assay type: in vivo, male Sprague-Dawley rats; settings: for Average Exudate Volume / Average Plasma Extravasation, OD620 nm / Total WBC in Sample / WBC: +MSU, 4 h
Procedure: The objective of this study was to evaluate the anti-inflammatory affects of tranilast versus a clinically active treatment for gout, colchicine, as well as a clinically active non-steroidal antiinflammatory drug, indomethacin. This evaluation was carried out in male Sprague-Dawley rats in a rodent model of gout. The animals were injected subcutaneously with 20 ml of sterile air, followed three days later by a supplemental injection with 20 ml of sterile air. Six days after the initial sterile air injection, the rats were injected intravenously with Evan's Blue and pretreated for thirty minutes with either a subcutaneous injection of colchicine (1 mg/kg) or indomethacin (5 mg/kg) or oral administration with either 200 mg/kg or 400 mg/kg of tranilast. After the pretreatment period, the rats were injected with 150 mg of monosodium urate (MSU) crystals (10 mg·ml) into the air pouch. Four hours later, the air pouch was injected with 5 ml heparinized saline and the entire contents of the air pouch removed, recording the total volume. The air pouch contents were evaluated for plasma extravasation and total white blood cell (WBC) count.
(§1) On day 0 the rats were anesthetized in a biological cabinet, the nape of the neck was cleansed with 70% isopropanol followed by iodine tincture (VEDCO, lot L021976). Twenty ml sterile (0.22 μm, Fisher Scientific, Cat. 09-720-3, lot R5SN25683) air was injected subcutaneously using a 23 G×2 inch needle fixed to a 20 ml syringe. The rats were returned to routine housing. No adverse reactions were observed.
as §1, with “day 3” for “day 0”
On day 6 the rats were weighed (Mettler, Model PE3000, SN: F69474) and sorted into six treatment groups of ten animals each, based upon average weight. The animals were either dosed subcutaneously with 1 ml/kg colchicine or indomethacin, or orally with either 4 ml/kg or 8 ml/kg tranilast, or 8 ml/kg vehicle. Immediately after test material administration, the rats were intravenously injected with 2 ml/kg Evans Blue.
Thirty minutes after test material administration, the rats were anesthetized and five groups were injected into the air pouch with 15 ml MSU using an 18 G×1 inch needle fitted to a 20 ml syringe. The sixth group was injected with 15 ml saline. The rats were returned to their cages, no adverse affects were observed.
Four hours after MSU injection, the rats were anesthetized and 5 ml 10 U/ml heparinized saline was injected into the air pouch. The air pouch was gently massaged, the contents immediately removed using a 14 G×1 inch needle fitted to a 6 ml syringe, and the exudate volume recorded. An aliquot of the exudate was transferred to heparin-treated microtainer tubes (Becton Dickinson, Cat. 365958, lot 8093666, exp. June 09) for white blood cell (WBC) counting. The remainder of the exudate was centrifuged (Hermle Labrotechnik, Model Z200A, SN: 44060036), the supernatants removed and evaluated at OD620nm (Spectronic Unicam, Model 4000 1/4, SN: 3SGD003006) for plasma extravasation.

[2] = tested on: serum uric acid (sUA) levels; test: Study A3006GT: phase 2 crossover, sUA in healthy subjects with screening sUA of at least 7.1 mg/dL; tranilast, febuxostat, combination; assay type: in vivo, human
Procedure: Study A3006GT was a phase 2, randomized, double-blind, 3-period, 3-treatment crossover trial. The primary objective was to compare the effects of three treatments on serum uric acid (sUA) levels in healthy subjects with a screening sUA level of at least 7.1 mg/dL. The three treatments were: 300 mg QD tranilast and 40 mg QD febuxostat (C); 300 mg QD tranilast alone (T); 40 mg QD febuxostat alone (F).
The study was conducted in 23 subjects. […] With two exceptions, every subject provided data for all three treatments. Subject 1001 completed only the first two periods of the study (C and F). […] Therefore, the period 3 data for subject 1024 are excluded from the analyses presented here.
Two endpoints were considered: change from baseline to day 7 in sUA; and percent change from baseline to day 7 in sUA. For each endpoint, an analysis of variance (ANOVA) model for a three-period crossover trial was used. The model included effects for sequence, subject within sequence, treatment, and period. The sequence effect was tested using the subject within sequence mean square as the error term. Two pairwise comparisons between treatments were tested: C−F and C−T. In addition, the two-sided 95% confidence interval for each of these differences was computed.
For each subject for which results were available from all three treatments, the difference between the change for C and the sum of the changes for F and T was computed. Although the true magnitude of the difference between these two values is not known, a conservative null hypothesis is that this difference should be equally likely to be greater than or less than zero. The sign test and the Wilcoxon signed rank test were used to test this null hypothesis.
Using the change for each subject as the dependent variable, an analysis of variance (ANOVA) model for a three-period crossover trial was fit. This model included effects for sequence, subject within sequence, treatment, and period. Using the least squares estimates of the mean changes for each treatment, along with the 3×3 covariance matrix of these three estimates, the mean and SD of the difference between C and F+T was estimated, as follows.

[3] = 1 mg/kg colchicine subcutaneous, 30 min before MSU
[4] = Group 2: colchicine 1 mg/kg subcutaneous
[5] = end of 1-week treatment (day 7), C: 300 mg QD tranilast + 40 mg QD febuxostat, T: 300 mg QD, F: 40 mg QD
[6] = individual subjects, per study period, end of the 1-week treatment period
[7] = 5 mg/kg indomethacin subcutaneous, 30 min before MSU
[8] = Group 3: indomethacin 5 mg/kg subcutaneous

COc1cc2c(c(OC)c1OC)-c1ccc(OC)c(=O)cc1[C@@H](NC(C)=O)CC2 [Colchicine, N-[1,2,3,10-Tetramethoxy-9-oxo-5,6,7,9-tetrahydrobenzo[a]heptalen-7(S)-yl]acetamide]
inhibition of plasma extravasation [1, 3]: 52% | reduction in inflammatory cell infiltration [1, 3]: 88% | Average Exudate Volume [1, 4]: 3.9 mL | Average Plasma Extravasation, OD620 nm [1, 4]: 0.776 | Total WBC in Sample [1, 4]: 35131400 | WBC [1, 4]: 9215000 cells/ml

Cc1nc(-c2ccc(OCC(C)C)c(C#N)c2)sc1C(=O)O [F]
sUA Change from Baseline, Max [2, 5]: -0.70 mg/dL | sUA Change from Baseline, Mean [2, 5]: -2.75 mg/dL | sUA Change from Baseline, Median [2, 5]: -2.85 mg/dL | sUA Change from Baseline, Min [2, 5]: -3.80 mg/dL | sUA Percent Change from Baseline, Max [2, 5]: −9.21% | sUA Percent Change from Baseline, Mean [2, 5]: −35.32% | sUA Percent Change from Baseline, Median [2, 5]: −36.86% | sUA Percent Change from Baseline, Min [2, 5]: −48.68% | sUA Change from baseline [2, 6]: −0.7 mg/dL and −2.9 mg/dL (2×) and −2.1 mg/dL (2×) and −1.2 mg/dL and −1.8 mg/dL and −2.8 mg/dL and −3.5 mg/dL (2×) and −2.4 mg/dL and −3.7 mg/dL (2×) and −2.7 mg/dL and −3.6 mg/dL (2×) and −3.3 mg/dL and −3.8 mg/dL and −2.2 mg/dL and −3.1 mg/dL and −2.3 mg/dL and −2.6 mg/dL | sUA Percent Change from baseline [2, 6]: −9.21% and −35.80% and −28.00% and −16.90% and −22.78% and −41.43% and −43.08% and −40.23% and −35.82% and −36.63% and −41.54% and −46.75% and −28.38% and −37.08% and −43.18% and −31.43% and −40.70% and −39.13% and −48.68% and −42.47% and −35.38% and −32.50%

COc1ccc2c(c1)c(CC(=O)O)c(C)n2C(=O)c1ccc(Cl)cc1 [Indomethacin]
reduction in inflammatory cell infiltration into the air pouch [1, 7]: 94% | reduction of plasma extravasation [1, 7]: 69% | Average Exudate Volume [1, 8]: 4.9 mL | Average Plasma Extravasation, OD620 nm [1, 8]: 0.505 | Total WBC in Sample [1, 8]: 18520000 | WBC [1, 8]: 4160000 cells/ml
